Source: patent US8785457B2 (Cellzome Limited, priority 2009, dated 2014)

Legend:
PI3 Kbeta (PI3 Kb) = target: T1, PI3 Kbeta (PI3 Kb) (Homo sapiens, UniProt P42338); assay: kinobeads assay, PI3Kbeta; type: binding; conditions: kinobeads assay, Table 6; read-out: Inhibition values (IC50) PI3Kb
T1 construct: endogenous in cells; host or cells: cell lysate
Method in brief: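 IC50s are fitted to per-kinase dose-response curves. Kinases retained on phenylmorpholin-chromen affinity beads are read by multiplexed immunodetection after elution. Compound, added at a range of concentrations straight into cell lysate, competes for this bead capture.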

[1] = system: S6RP serine-240/244 phosphorylation; assay: In vitro Phospho-S6 cellular assay (pS6RP S240/244) in HEK293T/17 cells; type: cell-based; conditions: Homo sapiens, 2 hours, read-out: pS6 IC50
Method in brief: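 Compounds were tested at eight concentrations on adhered HEK293T/17 cells for 2 h at 37 °C (2% FCS, 0.1% DMSO), at 80,000 cells/well for pAkt S473 and 40,000 for pS6RP S240/244. Lysates were captured on phospho-specific antibody MSD plates with Sulfo-Tag detection. Values came from nonlinear variable-slope regression.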

T1 sequence (P42338 whole entry): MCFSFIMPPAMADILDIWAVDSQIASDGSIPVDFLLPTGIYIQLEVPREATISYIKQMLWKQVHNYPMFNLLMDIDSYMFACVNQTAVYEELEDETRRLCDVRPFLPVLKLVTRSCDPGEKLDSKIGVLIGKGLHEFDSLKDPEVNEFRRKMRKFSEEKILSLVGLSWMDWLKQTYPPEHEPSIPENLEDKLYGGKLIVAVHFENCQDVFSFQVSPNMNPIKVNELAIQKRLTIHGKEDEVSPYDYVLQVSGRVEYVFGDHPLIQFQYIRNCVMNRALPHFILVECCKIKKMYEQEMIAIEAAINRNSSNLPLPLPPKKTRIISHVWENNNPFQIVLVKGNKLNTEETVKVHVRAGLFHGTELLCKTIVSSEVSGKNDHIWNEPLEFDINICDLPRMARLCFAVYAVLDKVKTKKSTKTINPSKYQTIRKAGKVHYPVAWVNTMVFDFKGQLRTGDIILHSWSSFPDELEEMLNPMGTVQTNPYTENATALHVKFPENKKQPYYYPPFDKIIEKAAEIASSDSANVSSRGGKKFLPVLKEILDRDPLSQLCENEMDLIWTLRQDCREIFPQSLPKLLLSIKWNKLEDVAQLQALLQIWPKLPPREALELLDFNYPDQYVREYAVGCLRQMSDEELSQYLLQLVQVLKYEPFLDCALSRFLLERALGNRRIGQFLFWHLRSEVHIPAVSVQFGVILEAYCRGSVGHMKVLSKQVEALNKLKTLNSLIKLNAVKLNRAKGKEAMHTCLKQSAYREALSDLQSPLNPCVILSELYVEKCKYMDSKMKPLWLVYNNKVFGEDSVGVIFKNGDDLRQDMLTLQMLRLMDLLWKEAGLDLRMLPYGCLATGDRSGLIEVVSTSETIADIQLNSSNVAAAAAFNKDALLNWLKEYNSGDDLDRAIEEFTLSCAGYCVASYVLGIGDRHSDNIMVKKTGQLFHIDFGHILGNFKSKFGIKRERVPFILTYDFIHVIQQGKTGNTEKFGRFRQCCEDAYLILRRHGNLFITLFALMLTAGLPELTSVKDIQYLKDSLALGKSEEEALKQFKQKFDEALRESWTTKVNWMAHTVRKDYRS
T1 sequence (P27986 whole entry partner): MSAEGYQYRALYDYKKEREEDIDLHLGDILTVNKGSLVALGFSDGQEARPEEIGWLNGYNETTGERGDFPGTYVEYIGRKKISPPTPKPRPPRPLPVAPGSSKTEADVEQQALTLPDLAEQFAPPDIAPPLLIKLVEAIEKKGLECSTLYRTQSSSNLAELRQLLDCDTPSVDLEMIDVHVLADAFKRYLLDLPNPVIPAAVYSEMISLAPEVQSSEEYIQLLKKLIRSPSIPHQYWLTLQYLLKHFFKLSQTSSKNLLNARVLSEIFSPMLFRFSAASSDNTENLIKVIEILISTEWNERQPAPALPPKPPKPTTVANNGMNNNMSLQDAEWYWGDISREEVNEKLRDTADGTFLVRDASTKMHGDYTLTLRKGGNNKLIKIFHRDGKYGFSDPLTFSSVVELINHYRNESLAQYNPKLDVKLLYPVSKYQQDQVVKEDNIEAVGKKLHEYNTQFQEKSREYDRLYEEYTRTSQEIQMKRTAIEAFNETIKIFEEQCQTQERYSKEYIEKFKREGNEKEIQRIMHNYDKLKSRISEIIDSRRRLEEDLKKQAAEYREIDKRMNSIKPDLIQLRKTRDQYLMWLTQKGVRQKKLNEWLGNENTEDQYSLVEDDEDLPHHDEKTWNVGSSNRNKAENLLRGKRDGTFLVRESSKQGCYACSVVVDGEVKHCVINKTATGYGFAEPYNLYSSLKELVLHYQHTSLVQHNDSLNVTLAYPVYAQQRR

Compound	IC50 (PI3 Kbeta (PI3 Kb)) [nM]	IC50 [1] [nM]
CCNC(=O)Nc1ccc(-c2nc3c(c(N4CCOCC4)n2)CCN(C(=O)NCC)C3)cc1 [Example 94, N-ethyl-2-(4-(3-ethylureido)phenyl)-4-morpholino-5,6-dihydropyrido[3,4-d]pyrimidine-7(8H)-carboxamide]	> 10000	565
CCNC(=O)Nc1ccc(-c2nc3c(c(N4CCOC[C@@H]4C)n2)CN(C(=O)OCC)CC3)cc1 [Example 107, (S)-ethyl 2-(4-(3-ethylureido)phenyl)-4-(3-methylmorpholino)-7,8-dihydropyrido[4,3-d]pyrimidine-6(5H)-carboxylate]	> 10000	159
CCNC(=O)Nc1ccc(-c2nc3c(c(N4CCOC[C@@H]4C)n2)CN(C(=O)OCC)C3)cc1F [Example 103, (S)-ethyl-2-(4-(3-ethylureido)-3-fluorophenyl)-4-(3-methylmorpholino)-5H-pyrrolo[3,4-d]pyrimidine-6(7H)-carboxylate]	> 10000	207
CCNC(=O)Nc1ccc(-c2nc3c(c(N4CCOC[C@@H]4C)n2)CN(C2CCN(C(=O)OC)CC2)C3)cc1F [Example 122, (S)-methyl 4-(2-(4-(3-ethylureido)-3-fluorophenyl)-4-(3-methylmorpholino)-5H-pyrrolo[3,4-d]pyrimidin-6(7H)-yl)piperidine-1-carboxylate]	> 10000	175
CC(C)C(=O)N1CCc2c(nc(-c3ccc(NC(=O)NC4CC4)cc3)nc2N2CCOC[C@@H]2C)C1 [Example 61, (S)-1-cyclopropyl-3-(4-(7-isobutyryl-4-(3-methylmorpholino)-5,6,7,8-tetrahydropyrido[3,4-d]pyrimidin-2-yl)phenyl)urea]	> 10000	22
CCOC(=O)N1CCc2c(nc(-c3ccc(NC(=O)NC4CC4)cc3)nc2N2CCOC[C@@H]2C)C1 [Example 78, (S)-ethyl 2-(4-(3-cyclopropylureido)phenyl)-4-(3-methylmorpholino)-5,6-dihydropyrido[3,4-d]pyrimidine-7(8H)-carboxylate]	> 10000	35
CCNC(=O)Nc1ccc(-c2nc3c(c(N4CCOC[C@@H]4C)n2)CCN(C(=O)Cc2cccnc2)C3)cc1 [Example 91, (S)-1-ethyl-3-(4-(4-(3-methylmorpholino)-7-(2-(pyridin-3-yl)acetyl)-5,6,7,8-tetrahydropyrido[3,4-d]pyrimidin-2-yl)phenyl)urea]	> 10000	105
CCOC(=O)N1Cc2nc(-c3ccc(NC(=O)NCCO)c(F)c3)nc(N3CCOC[C@@H]3C)c2C1 [Example 104, (S)-ethyl-2-(3-fluoro-4-(3-(2-hydroxyethyl)ureido)phenyl)-4-(3-methylmorpholino)-5H-pyrrolo[3,4-d]pyrimidine-6(7H)-carboxylate]	> 10000	390
C[C@H]1COCCN1c1nc(-c2ccc(NC(=O)Nc3ccn(C)n3)cc2)nc2c1CN(C)C2 [Example 84, (S)-1-(1-methyl-1H-pyrazol-3-yl)-3-(4-(6-methyl-4-(3-methylmorpholino)-6,7-dihydro-5H-pyrrolo[3,4-d]pyrimidin-2-yl)phenyl)urea]	> 10000	165
CCNC(=O)Nc1ccc(-c2nc3c(c(N4CCOCC4)n2)CCN(C)C3)cc1 [Example 93, 1-ethyl-3-(4-(7-methyl-4-morpholino-5,6,7,8-tetrahydropyrido[3,4-d]pyrimidin-2-yl)phenyl)urea]	> 10000	196
CCNC(=O)Nc1ccc(-c2nc3c(c(N4CCOCC4)n2)CCN(C(C)=O)C3)cc1 [Example 97, 1-(4-(7-acetyl-4-morpholino-5,6,7,8-tetrahydropyrido[3,4-d]pyrimidin-2-yl)phenyl)-3-ethylurea]	1000 to 10000	338
CCNC(=O)Nc1ccc(-c2nc3c(c(N4CCOC[C@@H]4C)n2)CCN(C(=O)C(C)(C)C)C3)cc1 [Example 58, (S)-1-ethyl-3-(4-(4-(3-methylmorpholino)-7-pivaloyl-5,6,7,8-tetrahydropyrido[3,4-d]pyrimidin-2-yl)phenyl)urea]	> 10000	34
CCNC(=O)Nc1ccc(-c2nc3c(c(N4CCOC[C@@H]4C)n2)CN(CC(C)C)C3)cc1 [Example 66, (S)-1-ethyl-3-(4-(6-isobutyl-4-(3-methylmorpholino)-6,7-dihydro-5H-pyrrolo[3,4-d]pyrimidin-2-yl)phenyl)urea]	> 10000	74
COC(=O)N1Cc2nc(-c3ccc(NC(=O)NC4CC4)cc3)nc(N3CCOC[C@@H]3C)c2C1 [Example 86, (S)-methyl 2-(4-(3-cyclopropylureido)phenyl)-4-(3-methylmorpholino)-5H-pyrrolo[3,4-d]pyrimidine-6(7H)-carboxylate]	> 10000	99
CCNC(=O)Nc1ccc(-c2nc3c(c(N4CCOC[C@@H]4C)n2)CCN(C(=O)OC)C3)cc1 [Example 81, (S)-methyl 2-(4-(3-ethylureido)phenyl)-4-(3-methylmorpholino)-5,6-dihydropyrido[3,4-d]pyrimidine-7(8H)-carboxylate]	> 10000	47
CCNC(=O)Nc1ccc(-c2nc3c(c(N4CCOC[C@@H]4C)n2)CN(CC(F)(F)F)C3)cc1 [Example 68, (S)-1-ethyl-3-(4-(4-(3-methylmorpholino)-6-(2,2,2-trifluoroethyl)-6,7-dihydro-5H-pyrrolo[3,4-d]pyrimidin-2-yl)phenyl)urea]	> 10000	243
C[C@H]1COCCN1c1nc(-c2ccc(NC(N)=O)cc2)nc2c1CN(C)C2 [Example 71, (S)-1-(4-(6-methyl-4-(3-methylmorpholino)-6,7-dihydro-5H-pyrrolo[3,4-d]pyrimidin-2-yl)phenyl)urea]	1000 to 10000	690
CCNC(=O)Nc1ccc(-c2nc3c(c(N4CCOC[C@@H]4C)n2)CN(C(=O)OCC)C3)cc1 [Example 90, (S)-ethyl 2-(4-(3-ethylureido)phenyl)-4-(3-methylmorpholino)-5H-pyrrolo[3,4-d]pyrimidine-6(7H)-carboxylate]	> 10000	83
Cc1cc(NC(=O)Nc2ccc(-c3nc4c(c(N5CCOC[C@@H]5C)n3)CN(C)C4)cc2)no1 [Example 72, (S)-1-(4-(6-methyl-4-(3-methylmorpholino)-6,7-dihydro-5H-pyrrolo[3,4-d]pyrimidin-2-yl)phenyl)-3-(5-methylisoxazol-3-yl)urea]	> 10000	129
CCNC(=O)Nc1ccc(-c2nc3c(c(N4CCOC[C@@H]4C)n2)CN(C(C)C)C3)cc1 [Example 74, (S)-1-ethyl-3-(4-(6-isopropyl-4-(3-methylmorpholino)-6,7-dihydro-5H-pyrrolo[3,4-d]pyrimidin-2-yl)phenyl)urea]	> 10000	110
CC(=O)N1CCc2c(nc(-c3ccc(NC(=O)NC4CC4)cc3)nc2N2CCOC[C@@H]2C)C1 [Example 62, (S)-1-(4-(7-acetyl-4-(3-methylmorpholino)-5,6,7,8-tetrahydropyrido[3,4-d]pyrimidin-2-yl)phenyl)-3-cyclopropylurea]	> 10000	49
CCNC(=O)Nc1ccc(-c2nc3c(c(N4CCOC[C@@H]4C)n2)CCN(C(=O)CO)C3)cc1 [Example 102, (S)-1-ethyl-3-(4-(7-(2-hydroxyacetyl)-4-(3-methylmorpholino)-5,6,7,8-tetrahydropyrido[3,4-d]pyrimidin-2-yl)phenyl)urea]	> 10000	258
CCNC(=O)Nc1ccc(-c2nc3c(c(N4CCOC[C@@H]4C)n2)CN(C(=O)OCC)C3)c(F)c1 [Example 113, (S)-ethyl-2-(4-(3-ethylureido)-2-fluorophenyl)-4-(3-methylmorpholino)-5H-pyrrolo[3,4-d]pyrimidine-6(7H)-carboxylate]	> 10000	77
CCNC(=O)N1CCc2c(nc(-c3ccc(NC(=O)NC4CC4)cc3)nc2N2CCOC[C@@H]2C)C1 [Example 88, (S)-2-(4-(3-cyclopropylureido)phenyl)-N-ethyl-4-(3-methylmorpholino)-5,6-dihydropyrido[3,4-d]pyrimidine-7(8H)-carboxamide]	> 10000	83
C[C@H]1COCCN1c1nc(-c2ccc(NC(=O)NC3CC3)cc2)nc2c1CCN(C(=O)C1CC1)C2 [Example 60, (S)-1-(4-(7-(cyclopropanecarbonyl)-4-(3-methylmorpholino)-5,6,7,8-tetrahydropyrido[3,4-d]pyrimidin-2-yl)phenyl)-3-cyclopropylurea]	> 10000	37
C[C@H]1COCCN1c1nc(-c2ccc(NC(=O)NC3CC3)cc2)nc2c1CN(C(=O)C1CCOCC1)C2 [Example 129, (S)-1-cyclopropyl-3-(4-(4-(3-methylmorpholino)-6-(tetrahydro-2H-pyran-4-carbonyl)-6,7-dihydro-5H-pyrrolo[3,4-d]pyrimidin-2-yl)phenyl)urea]	–	336
CCNC(=O)Nc1ccc(-c2nc3c(c(N4CCOC[C@@H]4C)n2)CN(C(=O)OC(C)(C)C)C3)cc1 [Example 1, (S)-tert-butyl 2-(4-(3-ethylureido)phenyl)-4-(3-methylmorpholino)-5H-pyrrolo[3,4-d]pyrimidine-6(7H)-carboxylate]	–	52
C[C@H]1COCCN1c1nc(-c2ccc(NC(=O)NC3CC3)cc2)nc2c1CN(CC(F)(F)F)C2 [Example 101, (S)-1-cyclopropyl-3-(4-(4-(3-methylmorpholino)-6-(2,2,2-trifluoroethyl)-6,7-dihydro-5H-pyrrolo[3,4-d]pyrimidin-2-yl)phenyl)urea]	–	252
CCNC(=O)Nc1ccc(-c2nc3c(c(N4CCOC[C@@H]4C)n2)CCN(C(C)=O)C3)cc1 [Example 59, (S)-1-(4-(7-acetyl-4-(3-methylmorpholino)-5,6,7,8-tetrahydropyrido[3,4-d]pyrimidin-2-yl)phenyl)-3-ethylurea]	–	160
